Experimental findings from ChEMBL document CHEMBL1139571, “Synthesis and characterization of azole isoflavone inhibitors of aromatase” (Bioorg Med Chem Lett, 2005) are described below.

The experiment addresses T1, Aromatase (Homo sapiens, UniProt P11511).
T1 sequence (P11511 whole entry): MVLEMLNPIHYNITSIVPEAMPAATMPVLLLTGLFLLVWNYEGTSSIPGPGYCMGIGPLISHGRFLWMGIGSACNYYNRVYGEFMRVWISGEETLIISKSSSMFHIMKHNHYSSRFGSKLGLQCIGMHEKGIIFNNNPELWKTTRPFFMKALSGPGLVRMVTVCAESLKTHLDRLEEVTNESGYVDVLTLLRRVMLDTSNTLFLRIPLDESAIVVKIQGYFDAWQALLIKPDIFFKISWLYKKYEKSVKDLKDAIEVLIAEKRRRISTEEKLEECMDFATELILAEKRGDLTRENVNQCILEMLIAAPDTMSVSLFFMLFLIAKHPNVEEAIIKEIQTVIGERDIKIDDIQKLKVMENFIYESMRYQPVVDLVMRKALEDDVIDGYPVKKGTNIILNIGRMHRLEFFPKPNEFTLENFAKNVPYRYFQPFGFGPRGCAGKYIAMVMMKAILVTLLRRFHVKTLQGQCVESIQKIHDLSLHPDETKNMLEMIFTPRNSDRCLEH
Description: Inhibitory concentration against human placental aromatase by deutirium oxide release

Consider `COc1ccc2c(=O)c(-c3ccccc3)c(Sc3nccn3C)oc2c1`, for which the IC50 (in general, the concentration at which inhibition is half-maximal) was > 50 µM.
